Key:
AB22 cells = assay: MTT cell vitality assay; assay type: cell-based, mouse; conditions: normoxia
Experimental: The MTT assay is based on the reduction in the mitochondria of metabolically active cells by succinate dehydrogenase obtaining a precipitation of purple formazan crystal. The assay was carried out using the same protocol reported by Azzi et al[42]. Briefly, AB22, ZL34 and MCF7 cells were seeded at a density of 7 × 10^3, 5 × 10^3 and 1 × 10^4 cells per well, respectively, in a 96-well microtiter plate. After 24 h at 37 °C and 5% CO2, they were incubated with increasing concentration of CA-SF or AZ for 24 h in a condition of normoxia at 37 °C and 5% CO2 by adding stock solutions in dimethyl sulfoxide (DMSO). In all the conditions the concentration of DMSO during the cell incubation was maintained under 0.25% (v/v) in cell medium. After the incubation, the medium was removed and each well was incubated with thiazolyl blue tetrazolium bromide (Sigma) dissolved in the medium at a concentration of 0.45 mg/mL for 4 h at 37 °C and 5% CO2. Then, after medium elimination, 150 µL of DMSO were added into each well to solubilise the formazan salt crystals produced by the metabolism of live cells and the microplate was incubated at room temperature (RT) for 30 min. Finally, absorbance was measured at 570 nm using an iMark microplate reader (Biorad). Cell vitality was reported as the percentage of […] cells observed in the treated samples relative to that observed in the non-treated control cells.

[1] = Mice weight monitoring after treatment; assay type: in vivo, Balb/c mice
Experimental: CA-SF treatment on mesothelioma bearing mice, were performed in the thermal column of the TRIGA Mark II reactor at Pavia University (Italy) using the same protocol reported in reference^35. The irradiation facility was previously designed for TAOrMINA treatment developed to treat multiple liver metastases with BNCT. The chamber used to perform animal irradiation has a cross section of 40 × 20 cm^2, a length of 1 m and it starts at about 1.3 m from the center of the reactor core. The animal irradiation position has been characterised in terms of neutron spectrum and background photon dose[43]. To carry out neutron irradiation animals are positioned at the end of this chamber where the in air thermal neutron flux is approximately 1.2 × 10^10 n/cm^2s, operating the reactor at its maximum power. In this way the thermal neutron flux is maximised and the irradiation time is kept as short as possible (never longer than 15 min). The first mice group (irradiated and treated group, n = 5) received three doses of CA-SF/poli β cyclodextrin (37.5 mg boron/kg dose) prepared as described before. […]
The weight of IRR, CA-SF and CA-SF + IRR groups was monitored till the end of the experiment (Supplementary Figure S1).

Q: Which results are given for 1-Sulfonamidomethyl-o-carborane [CA-SF]?
A: cell vitality measured by MTT (AB22 cells; AB22, 130 µM CA-SF, 24 h, 37 °C): about 80%; percentage of viable cells with increasing concentration (MTT) (AB22 cells; AB22, 24 h, Fig. 3): steadily decreases; loss of initial weight ([1]; treated and irradiated mice, CA-SF three doses + 15 min irradiation 250 kW): 10%; weight decrease at the end of the study ([1]; treated mice (CA-SF, not irradiated)): 5%

From publication PMC7648750, “In vitro and in vivo BNCT investigations using a carborane containing sulfonamide targeting CAIX epitopes on malignant pleural mesothelioma and breast cancer cells” (Scientific Reports, 2020)
